Measured values published in patent publication US20240002789A1, “SKIN SPHEROIDS AND PROCESS OF PREPARATION AND USE THEREOF” (The Governing Council of The University of Toronto, priority 2020, published 2024).

Assays:
Type in all cases: cell-based, human
[1] = system: dermal fibroblasts spheroids (DFSs); assay: On-chip screening of active ingredients on DFSs: collagen type I and fibronectin secretion (ELISA of culture supernatant)
Method: The microfluidic device was first, purged for 20 min with fluorinated oil with 0.5 wt % 008-fluorosurfactant (RAN Biotechnologies, USA) at a flow rate of 0.1 mL/hr. Subsequently, the supplying channel and the microwells were filled with the hDFs-in-EKGel I suspension with a cell density of 4.9×10^5 cells/μL. After that, the cell suspension in the supplying channel was replaced with fluorinated oil with 0.5 wt % surfactants. The inlet and outlet of the microfluidics quadruplet device were then sealed with PCR sealing tape and incubated at 37° C. for 2 hours, allowing EKGel to gel. Subsequently, the complete culture medium was continuously flowed through the supplying channel at the flow rate of 0.025 mL/hr. On the second day (Day 1), hDFs-laden EKGel droplets transformed into dermal fibroblasts spheroids (DFSs). Due to the contraction of DFSs, free space was present in each microwell, which allowed the incorporation of a second layer. To introduce another layer of keratinocytes, the culture medium was replaced by fluorinated oil with 0.5 wt % surfactants.
(§1) To study the effect of vitamin C or retinol on DFSs or KDFSs, on Day 2 the complete culture medium was replaced with 1% FBS DMEM culture medium with 1% (v/v) penicillin/streptomycin containing 0, 20, or 100 μg/mL vitamin C. Retinol at concentrations of 0, 30, 45, 60 μM was dissolved in 1% FBS DMEM culture medium with 1% (v/v) penicillin/streptomycin and 0.1% dimethyl sulfoxide (DMSO). The culture supernatant was collected from the outlet every 24-hours for analysis.
The amount of procollagen type I and fibronectin synthesized by hDFs and released in the supernatant were quantified using two ELISA kits, namely, Procollagen Type I C-Peptide (PIP) ELISA kit (MK101, Takara Bio Inc.) and Fibronectin ELISA kit (MK115, Takara Bio Inc.). Procollagen type I was used as the indicator for the collagen type I synthesized from hDFs. To determine the amount of procollagen type I synthesized by the cells, 20 μL collected culture supernatant and 100 μL of the anti-PIP antibody-peroxidase (POD) were added into a 96-well microplate coated with anti-PIP antibody and incubated at 37° C. for 3 hours. To determine the amount of fibronectin synthesized by the cells, 100 μL of the supernatant was first, added to the antibody-coated 96-well microplate for 1 hour at 37° C., thus allowing the fibronectin in the supernatant to bond to the antibody-coated on the microplate.
The supernatant was then discarded, and the microplates were washed with 1×PBS (MK021, Takara Bio Inc.) three times. Subsequently, the captured fibronectin was tagged by adding 100 μL of anti-human fibronectin antibody-POD conjugate into the microplate and incubating it for another 1 hour at 37° C. Upon completion of the antibody-POD conjugate incubation for both assays, the liquid content in the microwells was discarded and the microwells were washed four times with 1×PBS. 100 μL substrate solution (solution of 3,3′,5,5′-tetramethylbenzidine) was then added to the wells and incubated at room temperature for 15 min. Subsequently, 100 μL stop solution (MK021, Takara Bio Inc.) was added to each well. After stopping the reaction between POD and substrate, the absorbance of the contents of each microwell at 450 nm was measured by the CLARIOstar plate reader.

[2] = system: keratinocyte-dermal fibroblasts spheroids (KDFSs); assay: Vitamin C screening on KDFSs: collagen type I and fibronectin secretion; settings: 24-hour treatment; KDFSs from two lineages of dermal fibroblasts
Method: Keratinocytes were suspended in EKGel II precursor solution at a cell/gel mass ratio of 75:25. The keratinocytes-in-EKGel II suspension was then purged into the channel and filled the microwells. Consequently, the cell suspension in the supplying channel was washed away by fluorinated oil mixed with 0.5 wt % surfactants. The device was sealed and incubated at 37° C. for 1 hour. Finally, the complete culture medium was flowed to the microfluidic device at the flow rate of 0.025 mL/hr. On Day 2, keratinocytes aggregated and integrated with the hDF core to form layered skin spheroids, KDFSs.
To study the effect of vitamin C or retinol on DFSs or KDFSs, on Day 2 the complete culture medium was replaced with 1% FBS DMEM culture medium with 1% (v/v) penicillin/streptomycin containing 0, 20, or 100 μg/mL vitamin C. […]
The amount of procollagen type I and fibronectin synthesized by hDFs and released in the supernatant were quantified using two ELISA kits, namely, Procollagen Type I C-Peptide (PIP) ELISA kit (MK101, Takara Bio Inc.) and Fibronectin ELISA kit (MK115, Takara Bio Inc.). […]
The supernatant was then discarded, and the microplates were washed with 1×PBS (MK021, Takara Bio Inc.) three times. […] After stopping the reaction between POD and substrate, the absorbance of the contents of each microwell at 450 nm was measured by the CLARIOstar plate reader.

[3] = system: dermal fibroblasts spheroids (DFSs); assay: Immunofluorescence staining of collagen type I and fibronectin deposited in DFSs on the chip; settings: 72-hour treatment, 100 μg/mL vs 0 μg/mL vitamin C
Method: as §1
The immunofluorescence staining on DFSs/KDFSs formed in the microfluidic device was conducted by flowing a series of solutions at a flow rate of 0.15 mL/hr into the supplying microchannel in the following order. First, 1× Hanks' Balanced Salt Solution (HBSS) was flowed into the device for 20 min to remove the cell culture medium. Subsequently, a 5% formalin solution in HBSS was flowed to fix the DFSs/DKFSs. Subsequently, the formalin was washed away by purging 0.1 M glycine in 1×HBSS for 60 min. To permeate the DFSs/KDFSs, 0.5% triton-X in 1×HBSS was flowed into the device for 30 min. Subsequently, an immunofluorescence (IF) solution (consisting of 0.05 wt % NaN3, 0.1 wt % bovine serum albumin, 0.2 vol. % triton-X-100 and 0.05 vol. % Tween-20 in HBSS) was flowed to the microfluidics for 45 min. Primary blocking solution (10 wt % goat serum in IF washing solution) was then flowed for 60 min. […]

[4] = 100 μg/mL vitamin C for 24-hours

| SMILES | effect on fibronectin production in DFSs ([1]; retinol 30 μM, preliminary study) | effect on fibronectin production in DFSs ([1]; retinol 45 μM, preliminary study) | effect of retinol on DFSs (fibronectin production) ([1]; retinol 60 μM, longer incubation time (day 5), preliminary study) | effect on collagen expression in DFSs ([1]; retinol 30, 45, 60 μM, preliminary study) | concentration required to stimulate the production of collagen and fibronectin in KDFSs compared to DFSs [2] | collagen type I secretion from DFSs [1, 4] | fibronectin secretion from DFSs [1, 4] | deposition of collagen type I in DFSs [3] | deposition of fibronectin in DFSs [3] |
| --- | --- | --- | --- | --- | --- | --- | --- | --- | --- |
| CC1=C(/C=C/C(C)=C/C=C/C(C)=C/CO)C(C)(C)CCC1 [retinol] | positive and significant effect | positive and significant effect | negative effect | significant positive effect of retinol was not yet observed | – | – | – | – | – |
| O=C1O[C@H]([C@@H](O)CO)C(O)=C1O [vitamin C] | – | – | – | – | a higher concentration of vitamin C was required | increased level | increased level | increased | increased |
